pIC50: −log10 of the molar value. Counter-ions that a name gives are not always drawn.
How the values were obtained:
[1] = biological target: T1, serotonine (5-HT) reuptake in synaptosomes (Rattus norvegicus, UniProt P31652); assay: Inhibition of 5-HT reuptake in synaptosomes; format: biochemical; settings: 3H-5-HT, read-out: 5-HT-uptake IC50
T1 construct: in synaptosomes as described in WO 97/16451; from tissue; host or cells: synaptosomes (brain tissue)
Method: (§1) A number of compounds were tested for their ability to inhibit the reuptake of the monoamine neurotransmitters dopamine (DA) noradrenaline (NA) and serotonine (5-HT) in synaptosomes as described in WO 97/16451.
(§2) The test values are given as IC50 (the concentration (μM) of the test substance which inhibits the specific binding of ^3H-DA, ^3H-NA, or ^3H-5-HT by 50%).

[2] = biological target: T2, dopamine (DA) reuptake in synaptosomes (Rattus norvegicus, UniProt P23977); assay: Inhibition of DA reuptake in synaptosomes; format: biochemical; settings: 3H-DA, read-out: DA-uptake IC50
T2 construct: in synaptosomes as described in WO 97/16451; from tissue; host or cells: synaptosomes (brain tissue)
T2 sequence (P23977 whole entry): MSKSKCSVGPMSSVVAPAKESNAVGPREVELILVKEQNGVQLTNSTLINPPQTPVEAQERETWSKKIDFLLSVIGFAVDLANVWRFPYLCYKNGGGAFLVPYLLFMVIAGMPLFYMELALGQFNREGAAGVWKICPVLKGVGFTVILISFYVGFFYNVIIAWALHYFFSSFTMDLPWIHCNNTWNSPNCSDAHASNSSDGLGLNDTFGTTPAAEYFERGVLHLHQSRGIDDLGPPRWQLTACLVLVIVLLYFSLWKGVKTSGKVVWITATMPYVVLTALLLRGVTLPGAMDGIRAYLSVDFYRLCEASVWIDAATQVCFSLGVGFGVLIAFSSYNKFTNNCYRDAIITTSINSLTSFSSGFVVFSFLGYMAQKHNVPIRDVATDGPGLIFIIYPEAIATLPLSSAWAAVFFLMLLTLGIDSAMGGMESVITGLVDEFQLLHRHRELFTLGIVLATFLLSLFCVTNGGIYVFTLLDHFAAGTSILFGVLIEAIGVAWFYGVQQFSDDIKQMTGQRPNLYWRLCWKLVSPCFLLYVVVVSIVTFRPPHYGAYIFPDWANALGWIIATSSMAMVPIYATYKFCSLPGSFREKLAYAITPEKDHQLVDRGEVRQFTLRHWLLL
Method: as §1, §2

[3] = biological target: T3, noradrenaline (NA) reuptake in synaptosomes (Rattus norvegicus); assay: Inhibition of NA reuptake in synaptosomes; format: biochemical; settings: 3H-NA, read-out: NA-uptake IC50
T3 construct: in synaptosomes as described in WO 97/16451; from tissue; host or cells: synaptosomes (brain tissue)
T3 sequence (Q63380 1-617): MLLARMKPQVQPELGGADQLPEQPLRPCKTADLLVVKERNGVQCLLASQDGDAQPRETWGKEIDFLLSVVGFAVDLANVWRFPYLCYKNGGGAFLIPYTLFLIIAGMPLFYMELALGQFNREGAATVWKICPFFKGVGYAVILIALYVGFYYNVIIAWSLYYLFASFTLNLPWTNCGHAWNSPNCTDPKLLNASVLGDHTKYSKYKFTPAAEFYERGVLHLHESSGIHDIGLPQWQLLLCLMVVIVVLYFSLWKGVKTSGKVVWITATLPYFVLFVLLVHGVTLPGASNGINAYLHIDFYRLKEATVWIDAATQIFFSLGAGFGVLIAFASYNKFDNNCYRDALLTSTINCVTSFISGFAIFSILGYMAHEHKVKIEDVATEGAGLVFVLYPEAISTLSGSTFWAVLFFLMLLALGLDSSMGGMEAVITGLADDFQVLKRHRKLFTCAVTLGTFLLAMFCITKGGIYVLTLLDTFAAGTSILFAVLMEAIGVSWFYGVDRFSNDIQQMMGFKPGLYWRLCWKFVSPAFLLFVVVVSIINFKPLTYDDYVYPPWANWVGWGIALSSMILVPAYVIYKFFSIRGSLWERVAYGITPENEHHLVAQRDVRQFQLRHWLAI
Method: as §1, §2

T1 sequence (P31652 whole entry): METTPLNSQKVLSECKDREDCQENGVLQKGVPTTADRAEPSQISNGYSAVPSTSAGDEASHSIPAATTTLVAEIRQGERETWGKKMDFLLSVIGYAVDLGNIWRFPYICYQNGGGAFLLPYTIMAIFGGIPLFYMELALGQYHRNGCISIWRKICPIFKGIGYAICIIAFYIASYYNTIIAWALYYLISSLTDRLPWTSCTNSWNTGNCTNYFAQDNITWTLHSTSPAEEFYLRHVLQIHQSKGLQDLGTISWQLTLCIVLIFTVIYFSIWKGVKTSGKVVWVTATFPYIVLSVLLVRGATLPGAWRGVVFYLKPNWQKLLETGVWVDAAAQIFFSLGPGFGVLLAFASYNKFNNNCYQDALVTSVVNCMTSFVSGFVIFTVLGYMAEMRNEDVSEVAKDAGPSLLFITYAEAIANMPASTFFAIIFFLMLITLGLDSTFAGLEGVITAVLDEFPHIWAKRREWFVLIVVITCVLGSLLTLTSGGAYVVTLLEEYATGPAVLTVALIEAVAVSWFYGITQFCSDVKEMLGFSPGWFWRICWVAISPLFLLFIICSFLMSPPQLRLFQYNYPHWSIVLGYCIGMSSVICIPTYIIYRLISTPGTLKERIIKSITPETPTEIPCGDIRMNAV

Structure (SMILES) | melting point [°C] | pIC50 [1] | pIC50 [2] | pIC50 [3]
COCC1(Cc2ccc(Cl)c(Cl)c2)CCNCC1.O=C(O)/C=C/C(=O)O [Compound 5aa, 4-(3,4-Dichloro-benzyl)-4-methoxymethyl-piperidine fumaric acid salt] | 158.1 to 162.2 | 7.66 | 5.80 | 6.32
CCOCC1(Cc2ccc(Cl)c(Cl)c2)CCNCC1.O=C(O)/C=C/C(=O)O | 147.4 to 150.6 |  |  | 
OCC1(Cc2ccc(Cl)c(Cl)c2)CCNCC1 [Compound 5a, [4-(3,4-Dichloro-benzyl)-piperidin-4-yl]-methanol] | 147.7 to 148.7 |  |  | 
Clc1ccc(CC2(COc3ccccc3)CCNCC2)cc1Cl (as salt: fumarate) [Compound 5ac, 4-(3,4-Dichloro-benzyl)-4-phenoxymethyl-piperidine] | 165 to 167 |  |  | 

The next lines start with results.

melting point [°C] | Structure (SMILES) | pIC50 [1] | pIC50 [2] | pIC50 [3]
139 to 142 | COCC1(Cc2ccc3ccccc3c2)CCNCC1 (as salt: fumarate) [Compound 5da, 4-Methoxymethyl-4-naphthalen-2-ylmethyl-piperidine] |  |  | 
77.7 to 79.3 | Clc1ccc(OCC2(Cc3ccccc3)CCNCC2)cc1Cl [Compound 5ce, 4-Benzyl-4-(3,4-dichloro-phenoxymethyl)-piperidine] | 9.59 | 8.22 | 8.32
93.9 to 94.6 | Clc1ccc(CC2(COc3cccc(Cl)c3Cl)CCNCC2)cc1Cl [Compound 5ad, 4-(3,4-Dichloro-benzyl)-4-(2,3-dichloro-phenoxymethyl)-piperidine] |  |  | 
166.3 to 168.9 | Clc1ccc(CC2(COc3ccc(Cl)c(Cl)c3)CCNCC2)cc1Cl (as salt: fumarate) [Compound 5ae, 4-(3,4-Dichloro-benzyl)-4-(3,4-dichloro-phenoxymethyl)-piperidine] |  |  | 
167 to 168.4 | COCC1(Cc2cccc(Cl)c2Cl)CCNCC1 (as salt: fumarate) [Compound 5ba, 4-(2,3-Dichloro-benzyl)-4-methoxymethyl-piperidine] |  |  | 

Reference: US20110046179A1, “NOVEL PIPERIDINE DERIVATIVES AND THEIR USE AS MONOAMINE NEUROTRANSMITTER RE-UPTAKE INHIBITORS” (priority 2006, published 2011)
